# According to ChEMBL document CHEMBL2440076, “New triarylpyrazoles as broad-spectrum anticancer agents: design, synthesis, and biological evaluation” (Eur J Med Chem, 2013):
# Assays:
# PC-3 = test: Growth inhibition of human PC3 cells assessed as cell growth at 10 uM after 48 hrs by sulforhodamine B assay; format: functional; details: PC-3, 48 h, read-out: Activity
# SW-620 = test: Growth inhibition of human SW620 cells after 48 hrs by sulforhodamine B assay; format: functional; details: SW-620, 48 h; for CC50: read-out: LC50 (the source's name)
# HT-29 [1] = test: Growth inhibition of human HT-29 cells after 48 hrs by sulforhodamine B assay; format: functional; details: HT-29, 48 h; for CC50: read-out: LC50 (the source's name)
# [2] = Growth inhibition of human HCC2998 cells after 48 hrs by sulforhodamine B assay; format: functional; details: HCC 2998, 48 h; for CC50: read-out: LC50 (the source's name)
# NCI-H460 = test: Growth inhibition of human NCI-H460 cells after 48 hrs by sulforhodamine B assay; format: functional; details: NCI-H460, 48 h
# NCI-H226 [3] = test: Growth inhibition of human NCI-H226 cells after 48 hrs by sulforhodamine B assay; format: functional; details: NCI-H226, 48 h; for CC50: read-out: LC50 (the source's name)
# HOP-92 = test: Growth inhibition of human HOP92 cells after 48 hrs by sulforhodamine B assay; format: functional, cell-based; details: HOP-92, 48 h
# A549 [4] = test: Growth inhibition of human A549/ATCC cells after 48 hrs by sulforhodamine B assay; format: functional; details: A549, 48 h
# 786-0 = test: Growth inhibition of human 786-0 cells assessed as cell growth at 10 uM after 48 hrs by sulforhodamine B assay; format: functional; details: 786-0, 48 h, read-out: Activity
# SK-OV-3 = test: Growth inhibition of human SKOV3 cells assessed as cell growth at 10 uM after 48 hrs by sulforhodamine B assay; format: functional; details: SK-OV-3, 48 h, read-out: Activity
# UACC-257 = test: Growth inhibition of human UACC257 cells assessed as cell growth at 10 uM after 48 hrs by sulforhodamine B assay; format: functional; details: UACC-257, 48 h, read-out: Activity
# SK-MEL-28 = test: Growth inhibition of human SK-MEL-28 cells assessed as cell growth at 10 uM after 48 hrs by sulforhodamine B assay; format: functional; details: SK-MEL-28, 48 h, read-out: Activity
# U-251 [5] = test: Growth inhibition of human U251 cells assessed as cell growth at 10 uM after 48 hrs by sulforhodamine B assay; format: functional; details: U-251, 48 h, read-out: Activity
# SNB-19 = test: Growth inhibition of human SNB19 cells assessed as cell growth at 10 uM after 48 hrs by sulforhodamine B assay; format: functional; details: SNB-19, 48 h, read-out: Activity
# HT-29 [6] = test: Growth inhibition of human HT-29 cells assessed as cell growth at 10 uM after 48 hrs by sulforhodamine B assay; format: functional; details: HT-29, 48 h, read-out: Activity
# HCT-116 = test: Growth inhibition of human HCT116 cells assessed as cell growth at 10 uM after 48 hrs by sulforhodamine B assay; format: functional; details: HCT-116, 48 h, read-out: Activity
# NCI-H23 = test: Growth inhibition of human NCI-H23 cells assessed as cell growth at 10 uM after 48 hrs by sulforhodamine B assay; format: functional; details: NCI-H23, 48 h, read-out: Activity
# NCI-H226 [7] = test: Growth inhibition of human NCI-H226 cells assessed as cell growth at 10 uM after 48 hrs by sulforhodamine B assay; format: functional; details: NCI-H226, 48 h, read-out: Activity
# MDA-MB-468 = test: Growth inhibition of human MDA-MB-468 cells after 48 hrs by sulforhodamine B assay; format: functional, cell-based; details: MDA-MB-468, 48 h; for CC50: read-out: LC50 (the source's name)
# T47D = test: Growth inhibition of human T47D cells after 48 hrs by sulforhodamine B assay; format: functional; details: for CC50: read-out: LC50 (the source's name)
# MCF7 = test: Growth inhibition of human MCF7 cells after 48 hrs by sulforhodamine B assay; format: functional; details: MCF7, 48 h
# A498 = test: Growth inhibition of human A498 cells after 48 hrs by sulforhodamine B assay; format: functional, cell-based; details: A498, 48 h; for CC50: read-out: LC50 (the source's name)
# ACHN = test: Growth inhibition of human ACHN cells after 48 hrs by sulforhodamine B assay; format: functional; details: for CC50: read-out: LC50 (the source's name)
# [8] = Growth inhibition of human NCI-ADR-RES cells after 48 hrs by sulforhodamine B assay; format: functional; details: for CC50: read-out: LC50 (the source's name)
# OVCAR-3 = test: Growth inhibition of human OVCAR3 cells after 48 hrs by sulforhodamine B assay; format: functional, cell-based; details: OVCAR-3, 48 h; for CC50: read-out: LC50 (the source's name)
# IGROV-1 = test: Growth inhibition of human IGROV1 cells after 48 hrs by sulforhodamine B assay; format: functional; details: IGROV-1, 48 h
# SNB-75 = test: Growth inhibition of human SNB75 cells after 48 hrs by sulforhodamine B assay; format: functional; details: SNB-75, 48 h
# U-251 [9] = test: Growth inhibition of human U251 cells after 48 hrs by sulforhodamine B assay; format: functional; details: U-251, 48 h
# SF-539 = test: Growth inhibition of human SF539 cells after 48 hrs by sulforhodamine B assay; format: functional; details: SF-539, 48 h
# SF-295 = test: Growth inhibition of human SF295 cells after 48 hrs by sulforhodamine B assay; format: functional, cell-based; details: SF-295, 48 h; for CC50: read-out: LC50 (the source's name)
# HOP-62 = test: Growth inhibition of human HOP62 cells assessed as cell growth at 10 uM after 48 hrs by sulforhodamine B assay; format: functional; details: HOP-62, 48 h, read-out: Activity
# A549 [10] = test: Growth inhibition of human A549/ATCC cells assessed as cell growth at 10 uM after 48 hrs by sulforhodamine B assay; format: functional; details: A549, 48 h, read-out: Activity
# HL-60(TB) = test: Growth inhibition of human HL-60(TB) cells assessed as cell growth at 10 uM after 48 hrs by sulforhodamine B assay; format: functional; details: HL-60, 48 h, read-out: Activity
compound,measurement,setting,value
COc1cc(-c2nn(-c3cccc(NC(=O)Nc4cc(C(F)(F)F)cc(C(F)(F)F)c4)c3)cc2-c2ccncc2)ccc1Cl,growth at 10 µM,PC-3,-55.2%
same,GI50,SW-620,715 nM
same,TGI,SW-620,1860 nM
same,CC50,SW-620,4870 nM
same,GI50,HT-29 [1],702 nM
same,TGI,HT-29 [1],1610 nM
same,CC50,HT-29 [1],3710 nM
same,GI50,[2],931 nM
same,TGI,[2],1870 nM
same,CC50,[2],3760 nM
same,GI50,NCI-H460,558 nM
same,LC50,NCI-H460,16300 nM
same,TGI,NCI-H460,1870 nM
same,GI50,NCI-H226 [3],1360 nM
same,TGI,NCI-H226 [3],21800 nM
same,CC50,NCI-H226 [3],> 50000 nM
same,GI50,HOP-92,144 nM
same,IC50,HOP-92,140 nM
same,LC50,HOP-92,4720 nM
same,TGI,HOP-92,1150 nM
same,GI50,A549 [4],527 nM
same,LC50 (concentration killing 50% of starting cells),A549 [4],18000 nM
same,TGI,A549 [4],2130 nM
same,growth at 10 µM,786-0,-71.1%
same,growth at 10 µM,SK-OV-3,-9.79%
same,growth at 10 µM,UACC-257,-45.1%
same,growth at 10 µM,SK-MEL-28,-28.9%
same,growth at 10 µM,U-251 [5],-81.8%
same,growth at 10 µM,SNB-19,6.55%
same,growth at 10 µM,HT-29 [6],-41.2%
same,growth at 10 µM,HCT-116,-43.6%
same,growth at 10 µM,NCI-H23,-3.3%
same,growth at 10 µM,NCI-H226 [7],8.68%
same,GI50,MDA-MB-468,307 nM
same,IC50,MDA-MB-468,310 nM
same,TGI,MDA-MB-468,1540 nM
same,CC50,MDA-MB-468,24300 nM
same,GI50,T47D,1550 nM
same,TGI,T47D,> 50000 nM
same,CC50,T47D,> 50000 nM
same,GI50,MCF7,933 nM
same,LC50,MCF7,> 50000 nM
same,TGI,MCF7,10900 nM
same,GI50,A498,612 nM
same,IC50,A498,610 nM
same,TGI,A498,1900 nM
same,CC50,A498,7140 nM
same,GI50,ACHN,491 nM
same,TGI,ACHN,5720 nM
same,CC50,ACHN,> 50000 nM
same,GI50,[8],1010 nM
same,TGI,[8],5180 nM
same,CC50,[8],> 50000 nM
same,GI50,OVCAR-3,411 nM
same,IC50,OVCAR-3,410 nM
same,TGI,OVCAR-3,1230 nM
same,CC50,OVCAR-3,3390 nM
same,GI50,IGROV-1,826 nM
same,LC50 (concentration killing 50% of cells),IGROV-1,23700 nM
same,TGI,IGROV-1,2190 nM
same,GI50,SNB-75,858 nM
same,"LC50 (lethal concentration, 50% net cell kill)",SNB-75,5310 nM
same,TGI,SNB-75,2070 nM
same,GI50,U-251 [9],590 nM
same,LC50 (concentration killing 50% of cells),U-251 [9],3180 nM
same,TGI,U-251 [9],1370 nM
same,GI50,SF-539,829 nM
same,LC50 (concentration killing 50% of cells),SF-539,3540 nM
same,TGI,SF-539,1710 nM
same,GI50,SF-295,399 nM
same,IC50,SF-295,400 nM
same,TGI,SF-295,1230 nM
same,CC50,SF-295,3310 nM
same,growth at 10 µM,HOP-62,-77.6%
same,growth at 10 µM,A549 [10],-23.8%
same,growth at 10 µM,HL-60(TB),-20.2%
COc1cc(-c2nn(-c3cccc(NC(=O)Nc4ccc(Cl)c(C(F)(F)F)c4)c3)cc2-c2ccncc2)ccc1Cl,growth at 10 µM,PC-3,-19.1%
same,GI50,SW-620,1290 nM
same,TGI,SW-620,29900 nM
same,CC50,SW-620,> 32500 nM
same,GI50,HT-29 [1],1190 nM
same,TGI,HT-29 [1],4450 nM
same,CC50,HT-29 [1],21500 nM
same,GI50,[2],1550 nM
same,TGI,[2],7300 nM
same,CC50,[2],> 32500 nM
same,GI50,NCI-H460,1110 nM
same,LC50,NCI-H460,> 32500 nM
same,TGI,NCI-H460,4790 nM
same,GI50,NCI-H226 [3],1820 nM
same,TGI,NCI-H226 [3],> 32500 nM
same,CC50,NCI-H226 [3],> 32500 nM
same,GI50,HOP-92,499 nM
same,IC50,HOP-92,500 nM
same,LC50,HOP-92,> 32500 nM
same,TGI,HOP-92,1480 nM
same,GI50,A549 [4],1020 nM
same,LC50 (concentration killing 50% of starting cells),A549 [4],> 32500 nM
same,TGI,A549 [4],16700 nM
same,growth at 10 µM,786-0,15.1%
same,growth at 10 µM,SK-OV-3,0.43%
same,growth at 10 µM,UACC-257,-37.6%
same,growth at 10 µM,SK-MEL-28,8.8%
same,growth at 10 µM,U-251 [5],-20.9%
same,growth at 10 µM,SNB-19,26.4%
same,growth at 10 µM,HT-29 [6],-0.5%
same,growth at 10 µM,HCT-116,5.3%
same,growth at 10 µM,NCI-H23,5.69%
same,growth at 10 µM,NCI-H226 [7],12.1%
same,GI50,MDA-MB-468,833 nM
same,IC50,MDA-MB-468,830 nM
same,TGI,MDA-MB-468,4420 nM
same,CC50,MDA-MB-468,> 32500 nM
same,GI50,T47D,1230 nM
same,TGI,T47D,> 32500 nM
same,CC50,T47D,> 32500 nM
same,GI50,MCF7,919 nM
same,LC50,MCF7,> 32500 nM
same,TGI,MCF7,> 32500 nM
same,GI50,A498,837 nM
same,IC50,A498,840 nM
same,TGI,A498,6970 nM
same,CC50,A498,> 32500 nM
same,GI50,ACHN,1100 nM
same,TGI,ACHN,15600 nM
same,CC50,ACHN,> 32500 nM
same,GI50,[8],1040 nM
same,TGI,[8],7990 nM
same,CC50,[8],> 32500 nM
same,GI50,OVCAR-3,889 nM
same,IC50,OVCAR-3,890 nM
same,TGI,OVCAR-3,2440 nM
same,CC50,OVCAR-3,> 32500 nM
same,GI50,IGROV-1,1200 nM
same,LC50 (concentration killing 50% of cells),IGROV-1,> 32500 nM
same,TGI,IGROV-1,4220 nM
same,GI50,SNB-75,1280 nM
same,"LC50 (lethal concentration, 50% net cell kill)",SNB-75,> 32500 nM
same,TGI,SNB-75,10300 nM
same,GI50,U-251 [9],985 nM
same,LC50 (concentration killing 50% of cells),U-251 [9],24700 nM
same,TGI,U-251 [9],4180 nM
same,GI50,SF-539,1650 nM
same,LC50 (concentration killing 50% of cells),SF-539,17500 nM
same,TGI,SF-539,6340 nM
same,GI50,SF-295,840 nM
same,IC50,SF-295,840 nM
same,TGI,SF-295,2540 nM
same,CC50,SF-295,14900 nM
same,growth at 10 µM,HOP-62,5.4%
same,growth at 10 µM,A549 [10],-10.4%
same,growth at 10 µM,HL-60(TB),-19.8%
